Laboratory results as given in US8431113B2, “Polymer conjugates” (Biocompatibles UK Limited, priority 2002, dated 2013).
≈ marks a conversion by molar mass, not a printed value.

Experiment: Effect of polymer modification on drug solubility: maximum solubility in water at room temperature, compound added step-wise
Format: physicochemical
Details: unmodified base drug
Description: The polymer-modified compound was added step-wise to water to determine the maximum solubility at room temperature.

O=C(O)c1ccccc1O [Salicylic Acid, salicylic acid]
Solubility of Drug: 16 mM
solubility (water): 2200 µg/mL (≈ 15.9 mM)
